Results reported in the supplement of paper PMC11061612.

Columns and labels:
[1] = compound: C1CC(C1)(C(=O)[O-])C(=O)[O-].N.N.[Pt+2] [Carboplatin]; conditions: max 10 µM
Method in brief: (§1)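 Cancer cell lines were plated in 1536-well plates in 7.5 μl of DMEM/F12 or RPMI with 10% FBS and kept 24 hours at 37°C and 5% CO2 before 72 hours of dosing, with final DMSO typically 0.2%. CellTiter-Glo 2.0 luminescence measured viability, scaled between blank-well and DMSO-well means. Dose responses were fitted to a two-parameter logistic curve with a non-linear mixed effects model. This fit gives the single-agent IC50.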

[2] = compound: C1CN(CCC1(C(=O)N[C@@H](CCO)C2=CC=C(C=C2)Cl)N)C3=NC=NC4=C3C=CN4 [AZD5363]; conditions: max 10 µM
Method in brief: as §1

[3] = compound: C=CCn1c(=O)c2cnc(Nc3ccc(N4CCN(C)CC4)cc3)nc2n1-c1cccc(C(C)(C)O)n1 [AZD1775]; conditions: max 3 µM
Method in brief: as §1

[4] = compound: CC(=O)Nc1cccc(-n2c(=O)n(C3CC3)c(=O)c3c(Nc4ccc(I)cc4F)n(C)c(=O)c(C)c32)c1 [Trametinib]; conditions: max 1 µM
Method in brief: as §1

[5] = compound: CC(=O)O[C@H]1C(=O)[C@@]2(C)[C@H]([C@H](OC(=O)c3ccccc3)[C@]3(O)C[C@H](OC(=O)[C@H](O)[C@@H](NC(=O)c4ccccc4)c4ccccc4)C(C)=C1C3(C)C)[C@]1(OC(C)=O)CO[C@@H]1C[C@@H]2O [Paclitaxel]; conditions: max 3 µM
Method in brief: as §1

[6] = compound: CC(=O)c1c(C)c2cnc(Nc3ccc(N4CCNCC4)cn3)nc2n(C2CCCC2)c1=O [Palbociclib]; conditions: max 10 µM
Method in brief: as §1

[7] = compound: CC(C)n1c(=O)n(C)c2cnc3cc(F)c(-c4ccc(OCCCN5CCCCC5)nc4)cc3c21 [AZD1390]; conditions: max 0.3 µM
Method in brief: as §1

[8] = compound: CC1(C)CCC(CN2CCN(c3ccc(C(=O)NS(=O)(=O)c4ccc(NCC5CCOCC5)c([N+](=O)[O-])c4)c(Oc4cnc5[nH]ccc5c4)c3)CC2)=C(c2ccc(Cl)cc2)C1 [Venetoclax]; conditions: max 1 µM
Method in brief: as §1

[9] = compound: CC1=C(C(=CC=C1)Cl)NC(=O)C2=CN=C(S2)NC3=CC(=NC(=N3)C)N4CCN(CC4)CCO [Dasatinib]; conditions: max 2 µM
Method in brief: as §1

[10] = compound: CC1=CN2[C@@H](C1)C=NC3=CC(=C(C=C3C2=O)OC)OCCCCCOC4=C(C=C5C(=C4)N=C[C@@H]6CC(=CN6C5=O)C)OC [SG3199]; conditions: max 0.001 µM
Method in brief: as §1

[11] = compound: CCN(CCO)CCCOc1ccc2c(Nc3cc(CC(=O)Nc4cccc(F)c4)[nH]n3)ncnc2c1 [AZD2811]; conditions: max 1 µM
Method in brief: as §1

[12] = compound: CCc1c2c(nc3ccc(O)cc13)-c1cc3c(c(=O)n1C2)COC(=O)[C@]3(O)CC [SN-38]; conditions: max 0.3 µM
Method in brief: as §1

[13] = compound: CN(C)CCCOc1ccc(-c2ccc3ncc4c(c3c2)n(C2CCOCC2)c(=O)n4C)cn1 [AZD0156]; conditions: max 3 µM
Method in brief: as §1

[14] = compound: CN(CC[C@H](CSC1=CC=CC=C1)NC2=C(C=C(C=C2)S(=O)(=O)NC(=O)C3=CC=C(C=C3)N4CCC(CC4)[C@H](C5=CC=CC=C5C6=CC=C(C=C6)Cl)O)S(=O)(=O)C(F)(F)F)CCO [AZD4320]; conditions: max 1 µM
Method in brief: as §1

[15] = compound: COc1cc(Nc2ncc3c(n2)-c2ccc(Cl)cc2C(c2c(F)cccc2OC)=NC3)ccc1C(=O)O [Alisertib]; conditions: max 10 µM
Method in brief: as §1

[16] = compound: COc1cc([C@@H]2c3cc4c(cc3[C@@H](O[C@@H]3O[C@@H]5CO[C@@H](C)O[C@H]5[C@H](O)[C@H]3O)[C@H]3COC(=O)[C@H]23)OCO4)cc(OC)c1O [Etoposide]; conditions: max 10 µM
Method in brief: as §1

[17] = compound: COc1cc2ncnc(Nc3ccc(F)c(Cl)c3)c2cc1OCCCN1CCOCC1 [Gefitinib]; conditions: max 10 µM
Method in brief: as §1

[18] = compound: COc1cccc(OCCCN)c1-c1cc(Nc2cnc(C#N)cn2)n[nH]1 [Prexasertib]; conditions: max 1 µM
Method in brief: as §1

[19] = compound: COc1cccc2c1C(=O)c1c(O)c3c(c(O)c1C2=O)C[C@@](O)(C(=O)CO)C[C@@H]3O[C@H]1C[C@H](N)[C@H](O)[C@H](C)O1 [Doxorubicin]; conditions: max 1 µM
Method in brief: as §1

[20] = compound: COc1nnc2ccc(N3CCC(c4ccc(OCCN5CCN(C)C(=O)[C@H]5C)cc4)CC3)nn12 [AZD5153]; conditions: max 1 µM
Method in brief: as §1

[21] = compound: CS(=O)(=O)CCNCc1ccc(-c2ccc3ncnc(Nc4ccc(OCc5cccc(F)c5)c(Cl)c4)c3c2)o1 [Lapatinib]; conditions: max 10 µM
Method in brief: as §1

[22] = compound: C[C@@H](Nc1cc(F)cc(F)c1)c1cc(C(=O)N(C)C)cc2c(=O)cc(N3CCOCC3)oc12 [AZD8186]; conditions: max 10 µM
Method in brief: as §1

[23] = compound: C[C@@H](Oc1cc(-c2cnn(C3CCNCC3)c2)cnc1N)c1c(Cl)ccc(F)c1Cl [Crizotinib]; conditions: max 10 µM
Method in brief: as §1

[24] = compound: C[C@@H](c1ccc2nccn2c1)n1nnc2ncc(-c3cnn(C)c3)nc21 [Savolitinib]; conditions: max 1 µM
Method in brief: as §1

[25] = compound: C[C@@H]1COCCN1C2=NC(=NC(=C2)C3(CC3)[S@](=N)(=O)C)C4=C5C=CNC5=NC=C4 [AZD6738]; conditions: max 10 µM
Method in brief: as §1

[26] = compound: Cc1c2c(nn1C)CSCc1cc(n(C)n1)CSc1cc(c3ccccc3c1)OCCCc1c(C(=O)O)n(C)c3c-2c(Cl)ccc13 [AZD5991]; conditions: max 1 µM
Method in brief: as §1

[27] = compound: Cc1cc2ncnn2cc1Nc1ncc2c(n1)n(C1CCOCC1)c(=O)n2C [AZD7648]; conditions: max 10 µM
Method in brief: as §1

[28] = compound: Cc1nc(-c2cn3c(n2)-c2ccc(-c4cnn(C(C)(C)C(N)=O)c4)cc2OCC3)n(C(C)C)n1 [Taselisib]; conditions: max 10 µM
Method in brief: as §1

[29] = compound: Cn1cnc2c(F)c(Nc3ccc(Br)cc3Cl)c(C(=O)NOCCO)cc21 [Selumetinib]; conditions: max 10 µM
Method in brief: as §1

[30] = compound: N#Cc1cnc(Nc2cc(NC[C@H]3CNCCO3)c(C(F)(F)F)cn2)cn1 [SRA737]; conditions: max 10 µM
Method in brief: as §1

[31] = compound: NC1(c2ccc(-c3nc4ccn5c(=O)[nH]nc5c4cc3-c3ccccc3)cc2)CCC1 [MK-2206]; conditions: max 10 µM
Method in brief: as §1

[32] = compound: Nc1ccn([C@@H]2O[C@H](CO)[C@@H](O)C2(F)F)c(=O)n1 [Gemcitabine]; conditions: max 0.3 µM
Method in brief: as §1

[33] = compound: O=C(Nc1ccc2[nH]nc(-c3ccncc3)c2c1)[C@@H]1CCN(CC(=O)N2CCN(c3ccc(-c4ncccn4)cc3)CC2)C1; conditions: max 5 µM
Method in brief: as §1

[34] = compound: O=C(c1cc(Cc2n[nH]c(=O)c3ccccc23)ccc1F)N1CCN(C(=O)C2CC2)CC1 [Olaparib]; conditions: max 10 µM
Method in brief: as §1

[35] = compound: O=c1[nH]cc(F)c(=O)[nH]1 [5-Fluorouracil]; conditions: max 20 µM
Method in brief: as §1

| Cell Line | IC50, cell viability 72 h [1] | IC50, cell viability 72 h [2] | IC50, cell viability 72 h [3] | IC50, cell viability 72 h [4] | IC50, cell viability 72 h [5] | IC50, cell viability 72 h [6] | IC50, cell viability 72 h [7] | IC50, cell viability 72 h [8] | IC50, cell viability 72 h [9] | IC50, cell viability 72 h [10] | IC50, cell viability 72 h [11] | IC50, cell viability 72 h [12] | IC50, cell viability 72 h [13] | IC50, cell viability 72 h [14] | IC50, cell viability 72 h [15] | IC50, cell viability 72 h [16] | IC50, cell viability 72 h [17] | IC50, cell viability 72 h [18] | IC50, cell viability 72 h [19] | IC50, cell viability 72 h [20] | IC50, cell viability 72 h [21] | IC50, cell viability 72 h [22] | IC50, cell viability 72 h [23] | IC50, cell viability 72 h [24] | IC50, cell viability 72 h [25] | IC50, cell viability 72 h [26] | IC50, cell viability 72 h [27] | IC50, cell viability 72 h [28] | IC50, cell viability 72 h [29] | IC50, cell viability 72 h [30] | IC50, cell viability 72 h [31] | IC50, cell viability 72 h [32] | IC50, cell viability 72 h [33] | IC50, cell viability 72 h [34] | IC50, cell viability 72 h [35] |
| --- | --- | --- | --- | --- | --- | --- | --- | --- | --- | --- | --- | --- | --- | --- | --- | --- | --- | --- | --- | --- | --- | --- | --- | --- | --- | --- | --- | --- | --- | --- | --- | --- | --- | --- | --- |
| UACC-62 (Melanoma) | > 10 µM | > 10 µM | > 3 µM | 0.00406 µM | 0.598 µM | > 10 µM | > 0.3 µM | > 1 µM | > 2 µM | > 0.001 µM | > 1 µM | 0.0156 µM | > 3 µM | > 1 µM | > 10 µM | > 10 µM | > 10 µM | 0.136 µM | 0.373 µM | > 1 µM | > 10 µM | 3.99 µM | > 10 µM | > 1 µM | > 10 µM | 0.282 µM | > 10 µM | 4.61 µM | 0.284 µM | > 10 µM | > 10 µM | > 0.3 µM | 0.0846 µM | > 10 µM | > 20 µM |
| YH-13 (Glioblastoma) | > 10 µM | > 10 µM | > 3 µM | > 1 µM | 0.00382 µM | > 10 µM | > 0.3 µM | > 1 µM | 0.837 µM | > 0.001 µM | > 1 µM | 0.159 µM | > 3 µM | > 1 µM | > 10 µM | > 10 µM | > 10 µM | 0.0763 µM | > 1 µM | 0.534 µM | > 10 µM | 2.85 µM | > 10 µM | > 1 µM | > 10 µM | > 1 µM | > 10 µM | 2.99 µM | > 10 µM | > 10 µM | > 10 µM | 0.114 µM | > 5 µM | > 10 µM | > 20 µM |
